According to the NIST ThermoML archive (doi:10.1021/je060271a):
Numbers after ± are expanded uncertainties.

Conditions: 343.15 K, Liquid, Vibrating tube method

CCCCCCCC(=O)OCC(COC(=O)CCCCCCC)(COC(=O)CCCCCCC)COC(=O)CCCCCCC [pentaerythritol tetraoctanoate]
Conditions	mass density [kg/m3]
14038 kPa	936.2 ± 1.2
14078 kPa	936.3 ± 1.2
14099 kPa	936.2 ± 1.2
14121 kPa	936.1 ± 1.2
14146 kPa	936.2 ± 1.2
14168 kPa	936.1 ± 1.2
14194 kPa	936.3 ± 1.2
14216 kPa	936.3 ± 1.2
14238 kPa	936.2 ± 1.2
14260 kPa	936.2 ± 1.2
14286 kPa	936.3 ± 1.2
14308 kPa	936.4 ± 1.2
14330 kPa	936.4 ± 1.2
14357 kPa	936.2 ± 1.2
14379 kPa	936.4 ± 1.2
14401 kPa	936.3 ± 1.2
14428 kPa	936.3 ± 1.2
14450 kPa	936.4 ± 1.2
14473 kPa	936.4 ± 1.2
14500 kPa	936.4 ± 1.2
14523 kPa	936.4 ± 1.2
14546 kPa	936.5 ± 1.2
14570 kPa	936.6 ± 1.2
14594 kPa	936.4 ± 1.2
14621 kPa	936.6 ± 1.2
14644 kPa	936.5 ± 1.2
14667 kPa	936.4 ± 1.2
14694 kPa	936.5 ± 1.2
14718 kPa	936.6 ± 1.2
14741 kPa	936.7 ± 1.2
14765 kPa	936.5 ± 1.2
14793 kPa	936.6 ± 1.2
14817 kPa	936.6 ± 1.2
14845 kPa	936.6 ± 1.2
14870 kPa	936.7 ± 1.2
14894 kPa	936.6 ± 1.2
14918 kPa	936.8 ± 1.2
14947 kPa	936.7 ± 1.2
14971 kPa	936.8 ± 1.2
14995 kPa	936.7 ± 1.2
15024 kPa	936.7 ± 1.2
15049 kPa	936.8 ± 1.2
15078 kPa	936.8 ± 1.2
15103 kPa	936.8 ± 1.2
15127 kPa	936.8 ± 1.2
15152 kPa	936.9 ± 1.2
15183 kPa	936.8 ± 1.2
15208 kPa	936.8 ± 1.2
15233 kPa	936.8 ± 1.2
15263 kPa	936.9 ± 1.2
15288 kPa	937 ± 1.2
15314 kPa	937 ± 1.2
15344 kPa	937 ± 1.2
15370 kPa	937 ± 1.2
15396 kPa	937.1 ± 1.2
15426 kPa	937.1 ± 1.2
15452 kPa	937 ± 1.2
15478 kPa	937 ± 1.2
15508 kPa	937 ± 1.2
15536 kPa	937 ± 1.2
15563 kPa	937.1 ± 1.2
15589 kPa	937.3 ± 1.2
15616 kPa	937.2 ± 1.2
15647 kPa	937.1 ± 1.2
15673 kPa	937.2 ± 1.2
15705 kPa	937.3 ± 1.2
15732 kPa	937.3 ± 1.2
15759 kPa	937.3 ± 1.2
15791 kPa	937.2 ± 1.2
15818 kPa	937.3 ± 1.2
15846 kPa	937.3 ± 1.2
15879 kPa	937.4 ± 1.2
15908 kPa	937.4 ± 1.2
15936 kPa	937.2 ± 1.2
15964 kPa	937.3 ± 1.2
15992 kPa	937.3 ± 1.2
16026 kPa	937.4 ± 1.2
16054 kPa	937.5 ± 1.2
16083 kPa	937.4 ± 1.2
16116 kPa	937.5 ± 1.2
16144 kPa	937.5 ± 1.2
16173 kPa	937.5 ± 1.2
16207 kPa	937.5 ± 1.2
16236 kPa	937.5 ± 1.2
16265 kPa	937.7 ± 1.2
16300 kPa	937.7 ± 1.2
16329 kPa	937.6 ± 1.2
16358 kPa	937.7 ± 1.2
16387 kPa	937.6 ± 1.2
16423 kPa	937.7 ± 1.2
16453 kPa	937.7 ± 1.2
16483 kPa	937.8 ± 1.2
16518 kPa	937.7 ± 1.2
16548 kPa	937.6 ± 1.2
16578 kPa	937.8 ± 1.2
16609 kPa	937.7 ± 1.2
16645 kPa	937.8 ± 1.2
16676 kPa	937.9 ± 1.2
16707 kPa	937.9 ± 1.2
16738 kPa	937.8 ± 1.2
16775 kPa	937.8 ± 1.2
16806 kPa	937.9 ± 1.2
16843 kPa	938.1 ± 1.2
16904 kPa	938 ± 1.2
16942 kPa	938 ± 1.2
16974 kPa	938.1 ± 1.2
17005 kPa	938 ± 1.2
17037 kPa	938.1 ± 1.2
17075 kPa	938.1 ± 1.2
17107 kPa	938.1 ± 1.2
17146 kPa	938.2 ± 1.2
17354 kPa	938.2 ± 1.2
17387 kPa	938.2 ± 1.2
17421 kPa	938.3 ± 1.2
17460 kPa	938.4 ± 1.2
17494 kPa	938.4 ± 1.2
17528 kPa	938.4 ± 1.2
17569 kPa	938.5 ± 1.2
17604 kPa	938.5 ± 1.2
17638 kPa	938.4 ± 1.2
17678 kPa	938.5 ± 1.2
17713 kPa	938.4 ± 1.2
17748 kPa	938.5 ± 1.2
17790 kPa	938.6 ± 1.2
17825 kPa	938.6 ± 1.2
17861 kPa	938.6 ± 1.2
17904 kPa	938.7 ± 1.2
17940 kPa	938.7 ± 1.2
17977 kPa	938.8 ± 1.2
18022 kPa	938.8 ± 1.2
18054 kPa	938.8 ± 1.2
18084 kPa	938.8 ± 1.2
18119 kPa	938.8 ± 1.2
18149 kPa	938.8 ± 1.2
18179 kPa	938.8 ± 1.2
18210 kPa	938.9 ± 1.2
18247 kPa	938.9 ± 1.2
18279 kPa	938.9 ± 1.2
18312 kPa	938.9 ± 1.2
18349 kPa	939 ± 1.2
18372 kPa	938.9 ± 1.2
18393 kPa	939.1 ± 1.2
18411 kPa	939.1 ± 1.2
18430 kPa	939 ± 1.2
18448 kPa	939 ± 1.2
18465 kPa	939.1 ± 1.2
18482 kPa	939.1 ± 1.2
18503 kPa	939.2 ± 1.2
18521 kPa	939.1 ± 1.2
18542 kPa	939.2 ± 1.2
18560 kPa	939.1 ± 1.2
18577 kPa	939.1 ± 1.2
18598 kPa	939.1 ± 1.2
18616 kPa	939.1 ± 1.2
18635 kPa	939.2 ± 1.2
18657 kPa	939.2 ± 1.2
18673 kPa	939.2 ± 1.2
18695 kPa	939.2 ± 1.2
18712 kPa	939.1 ± 1.2
18730 kPa	939.3 ± 1.2
18752 kPa	939.4 ± 1.2
18771 kPa	939.4 ± 1.2
18789 kPa	939.2 ± 1.2
18812 kPa	939.2 ± 1.2
18830 kPa	939.2 ± 1.2
18848 kPa	939.3 ± 1.2
18870 kPa	939.4 ± 1.2
18888 kPa	939.3 ± 1.2
18907 kPa	939.4 ± 1.2
18926 kPa	939.4 ± 1.2
18948 kPa	939.4 ± 1.2
18967 kPa	939.4 ± 1.2
18986 kPa	939.4 ± 1.2
19008 kPa	939.4 ± 1.2
19027 kPa	939.4 ± 1.2
19049 kPa	939.6 ± 1.2
19068 kPa	939.5 ± 1.2
19087 kPa	939.4 ± 1.2
19106 kPa	939.5 ± 1.2
19129 kPa	939.5 ± 1.2
19148 kPa	939.4 ± 1.2
19167 kPa	939.5 ± 1.2
19190 kPa	939.6 ± 1.2
19210 kPa	939.6 ± 1.2
19225 kPa	939.6 ± 1.2
19248 kPa	939.6 ± 1.2
19271 kPa	939.5 ± 1.2
19291 kPa	939.6 ± 1.2
19310 kPa	939.7 ± 1.2
19334 kPa	939.6 ± 1.2
19353 kPa	939.6 ± 1.2
19373 kPa	939.6 ± 1.2
19396 kPa	939.7 ± 1.2
19416 kPa	939.7 ± 1.2
19436 kPa	939.7 ± 1.2
19456 kPa	939.8 ± 1.2
19480 kPa	939.6 ± 1.2
19499 kPa	939.7 ± 1.2
19519 kPa	939.6 ± 1.2
19543 kPa	939.7 ± 1.2
19563 kPa	939.8 ± 1.2
19587 kPa	939.8 ± 1.2
19608 kPa	939.8 ± 1.2
19627 kPa	939.7 ± 1.2
19647 kPa	939.8 ± 1.2
19671 kPa	939.9 ± 1.2
19691 kPa	939.7 ± 1.2
19712 kPa	939.8 ± 1.2
19736 kPa	939.8 ± 1.2
19756 kPa	939.8 ± 1.2
19780 kPa	939.9 ± 1.2
19801 kPa	940.1 ± 1.2
19821 kPa	940.1 ± 1.2
19841 kPa	939.9 ± 1.2
19866 kPa	940 ± 1.2
19887 kPa	940 ± 1.2
19907 kPa	940 ± 1.2
19932 kPa	940 ± 1.2
19952 kPa	940.1 ± 1.2
19977 kPa	940 ± 1.2
19999 kPa	940 ± 1.2
20019 kPa	940 ± 1.2
20040 kPa	940.1 ± 1.2
20065 kPa	940 ± 1.2
20108 kPa	940.1 ± 1.2
20155 kPa	940.1 ± 1.2
20180 kPa	940.2 ± 1.2
20201 kPa	940.2 ± 1.2
20223 kPa	940.1 ± 1.2
20245 kPa	940.2 ± 1.2
20271 kPa	940.1 ± 1.2
20295 kPa	940.1 ± 1.2
20316 kPa	940.3 ± 1.2
20338 kPa	940.2 ± 1.2
20364 kPa	940.2 ± 1.2
20386 kPa	940.3 ± 1.2
20408 kPa	940.3 ± 1.2
20434 kPa	940.3 ± 1.2
20527 kPa	940.5 ± 1.2
20550 kPa	940.3 ± 1.2
20577 kPa	940.3 ± 1.2
20596 kPa	940.4 ± 1.2
20622 kPa	940.5 ± 1.2
20645 kPa	940.4 ± 1.2
20667 kPa	940.5 ± 1.2
20690 kPa	940.5 ± 1.2
20708 kPa	940.5 ± 1.2
20731 kPa	940.6 ± 1.2
20753 kPa	940.5 ± 1.2
20790 kPa	940.5 ± 1.2
20813 kPa	940.5 ± 1.2
20836 kPa	940.5 ± 1.2
20864 kPa	940.6 ± 1.2
20887 kPa	940.6 ± 1.2
20910 kPa	940.5 ± 1.2
20938 kPa	940.7 ± 1.2
20961 kPa	940.6 ± 1.2
20984 kPa	940.8 ± 1.2
21008 kPa	940.5 ± 1.2
21036 kPa	940.7 ± 1.2
21059 kPa	940.8 ± 1.2
21087 kPa	940.8 ± 1.2
21110 kPa	940.8 ± 1.2
21134 kPa	940.7 ± 1.2
21162 kPa	940.8 ± 1.2
21185 kPa	940.8 ± 1.2
21215 kPa	940.8 ± 1.2
21239 kPa	940.8 ± 1.2
21262 kPa	940.9 ± 1.2
21286 kPa	940.9 ± 1.2
21315 kPa	940.9 ± 1.2
21339 kPa	940.9 ± 1.2
21363 kPa	940.9 ± 1.2
21392 kPa	941 ± 1.2
21416 kPa	941 ± 1.2
21440 kPa	941 ± 1.2
21469 kPa	940.9 ± 1.2
21494 kPa	941.1 ± 1.2
21518 kPa	941.1 ± 1.2
21548 kPa	941 ± 1.2
21573 kPa	941.1 ± 1.2
21597 kPa	941.1 ± 1.2
21622 kPa	941.1 ± 1.2
21652 kPa	941.1 ± 1.2
21677 kPa	941.1 ± 1.2
21702 kPa	941.2 ± 1.2
21732 kPa	941.3 ± 1.2
21757 kPa	941.3 ± 1.2
21782 kPa	941.2 ± 1.2
21812 kPa	941.2 ± 1.2
21837 kPa	941.1 ± 1.2
21863 kPa	941.2 ± 1.2
21890 kPa	941.1 ± 1.2
21920 kPa	941.2 ± 1.2
21946 kPa	941.3 ± 1.2
21977 kPa	941.3 ± 1.2
